Activity calls are given as the source filed them. The rule behind the calls is not given here.
How the values were obtained:
[1] = target: T1, Intercellular adhesion molecule (ICAM-1), Integrin alpha-L/beta-2 (Homo sapiens, UniProt P05107+P05362+P20701); assay: Antagonist activity at LFA-1/ICAM-1 in human HuT-78 T-cells assessed as inhibition of cell adhesion after 1 hr by p-nitrophenyl n-acetyl-beta-D-glucosaminide method; format: functional, cell-based, HuT78
[2] = target: T1, Intercellular adhesion molecule (ICAM-1), Integrin alpha-L/beta-2; assay: Antagonist activity at LFA-1/ICAM-1 in human HuT-78 T-cells assessed as inhibition of cell adhesion after 1 hr by p-nitrophenyl n-acetyl-beta-D-glucosaminide method in presence of 10% human serum; format: functional, cell-based, HuT78
[3] = Metabolic stability in human liver microsomes assessed as compound remaining after 30 mins; format: ADME, Microsome; conditions: read-out: Stability
[4] = Metabolic stability in rat liver microsomes assessed as compound remaining after 30 mins; format: ADME, Microsome; conditions: read-out: Stability
[5] = Half life in Sprague-Dawley rat at 5 mg/kg, iv; format: ADME, organism-based; set-up: dose 5 mg/kg, route intravenous; conditions: in vivo
[6] = Clearance in Sprague-Dawley rat at 5 mg/kg, iv; format: ADME, organism-based; set-up: dose 5 mg/kg, route intravenous; conditions: in vivo
Rattus norvegicus = assay: AUC in Sprague-Dawley rat at 5 mg/kg, iv; format: ADME, organism-based, Plasma; set-up: dose 5 mg/kg, route intravenous; conditions: in vivo
Salmonella typhimurium = assay: Genotoxicity in Salmonella typhimurium by Ames test; format: toxicity, organism-based; conditions: salmonella enterica subsp. enterica serovar typhimurium
Cytochrome P450 3A4 = Cytochrome P450 3A4 (Homo sapiens, UniProt P08684); assay: Inhibition of CYP3A4; format: ADME
Cytochrome P450 3A4, sequence (P08684 whole entry): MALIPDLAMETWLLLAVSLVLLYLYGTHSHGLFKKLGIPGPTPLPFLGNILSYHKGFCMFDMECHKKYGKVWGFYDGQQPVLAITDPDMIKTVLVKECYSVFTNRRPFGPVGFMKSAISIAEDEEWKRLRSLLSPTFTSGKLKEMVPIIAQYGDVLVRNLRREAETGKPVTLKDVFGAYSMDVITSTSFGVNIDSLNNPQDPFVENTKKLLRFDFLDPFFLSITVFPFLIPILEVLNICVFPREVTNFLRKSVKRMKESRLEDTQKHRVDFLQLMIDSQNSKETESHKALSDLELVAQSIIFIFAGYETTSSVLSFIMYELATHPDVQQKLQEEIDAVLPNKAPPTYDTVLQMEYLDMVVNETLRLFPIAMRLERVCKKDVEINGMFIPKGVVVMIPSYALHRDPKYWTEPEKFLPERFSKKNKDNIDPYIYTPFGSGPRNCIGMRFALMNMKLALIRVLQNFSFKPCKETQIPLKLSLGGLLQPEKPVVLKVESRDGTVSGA

Cytochrome P450 2C9 = Cytochrome P450 2C9 (Homo sapiens, UniProt P11712); assay: Inhibition of CYP2C9; format: ADME
Cytochrome P450 2C9, sequence (P11712 whole entry): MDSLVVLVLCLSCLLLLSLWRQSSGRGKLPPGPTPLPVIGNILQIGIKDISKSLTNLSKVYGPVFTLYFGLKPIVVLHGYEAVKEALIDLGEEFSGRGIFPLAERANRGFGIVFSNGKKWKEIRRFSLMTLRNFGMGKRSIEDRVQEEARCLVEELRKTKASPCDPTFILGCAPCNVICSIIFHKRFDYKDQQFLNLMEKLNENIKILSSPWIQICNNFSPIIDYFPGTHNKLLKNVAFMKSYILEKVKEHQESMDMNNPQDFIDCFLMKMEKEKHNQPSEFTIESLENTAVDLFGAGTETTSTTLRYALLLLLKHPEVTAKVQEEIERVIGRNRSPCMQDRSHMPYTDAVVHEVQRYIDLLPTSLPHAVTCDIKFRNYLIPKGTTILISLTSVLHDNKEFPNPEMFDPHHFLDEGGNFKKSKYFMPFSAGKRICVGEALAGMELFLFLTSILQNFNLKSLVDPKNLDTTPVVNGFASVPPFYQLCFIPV

Canis familiaris = assay: Increase of mean schirmer's tear test in dog administered topically with 1% PBS solution tid for 12 weeks measured after 1 to 12 weeks; format: functional, Canis lupus familiaris
[7] = target: Intercellular adhesion molecule 1 (Homo sapiens) (UniProt P05362); assay: Inhibition of ICAM-1-mediated IFNgamma release
Intercellular adhesion molecule 1 (Homo sapiens), sequence (P05362 whole entry): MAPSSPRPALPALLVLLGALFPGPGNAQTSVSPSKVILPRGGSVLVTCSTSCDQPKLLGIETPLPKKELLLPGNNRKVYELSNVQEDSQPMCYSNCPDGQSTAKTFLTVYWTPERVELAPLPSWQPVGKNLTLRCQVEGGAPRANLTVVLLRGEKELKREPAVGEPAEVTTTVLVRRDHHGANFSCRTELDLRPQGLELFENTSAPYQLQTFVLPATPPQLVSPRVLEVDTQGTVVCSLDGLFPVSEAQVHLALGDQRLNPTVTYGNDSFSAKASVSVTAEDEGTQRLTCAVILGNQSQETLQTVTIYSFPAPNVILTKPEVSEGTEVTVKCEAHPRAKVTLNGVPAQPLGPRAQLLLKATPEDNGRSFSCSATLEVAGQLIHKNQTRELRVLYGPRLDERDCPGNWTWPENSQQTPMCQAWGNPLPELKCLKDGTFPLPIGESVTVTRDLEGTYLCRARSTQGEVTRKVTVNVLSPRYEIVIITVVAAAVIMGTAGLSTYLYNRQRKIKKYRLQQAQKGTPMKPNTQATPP

[8] = target: Intercellular adhesion molecule 1 (Homo sapiens) (UniProt P05362); assay: Inhibition of ICAM-1-mediated MIP-1alpha release
[9] = target: Intercellular adhesion molecule 1 (Homo sapiens) (UniProt P05362); assay: Inhibition of ICAM-1-mediated IL-1alpha release
[10] = target: Intercellular adhesion molecule 1 (Homo sapiens) (UniProt P05362); assay: Inhibition of ICAM-1-mediated IL-1beta release
[11] = target: Intercellular adhesion molecule 1 (Homo sapiens) (UniProt P05362); assay: Inhibition of ICAM-1-mediated IL-6 release
[12] = target: Intercellular adhesion molecule 1 (Homo sapiens) (UniProt P05362); assay: Inhibition of ICAM-1-mediated IL-10 release
[13] = Solubility of the compound in phosphate-buffered saline; format: physicochemical
[14] = Drug uptake in rat bulbar conjunctiva administered topically as ophthalmic solution after 30 mins; format: ADME; conditions: in vivo, topical_or_ocular, 0.5 h
[15] = Drug uptake in rat palpebral conjunctiva administered topically as ophthalmic solution after 30 mins; format: ADME, tissue-based; conditions: in vivo, topical_or_ocular, 0.5 h
[16] = Drug uptake in rat cornea administered topically as ophthalmic solution after 30 mins; format: ADME, tissue-based; conditions: in vivo, topical_or_ocular, 0.5 h
[17] = Drug uptake in dog bulbar conjunctiva administered topically as ophthalmic solution after 30 mins; format: ADME, tissue-based, Canis lupus familiaris; conditions: in vivo, topical_or_ocular, 0.5 h
[18] = Drug uptake in dog palpebral conjunctiva administered topically as ophthalmic solution after 30 mins; format: ADME, tissue-based, Canis lupus familiaris; conditions: in vivo, topical_or_ocular, 0.5 h
[19] = Drug uptake in dog cornea administered topically as ophthalmic solution after 30 mins; format: ADME, tissue-based, Canis lupus familiaris; conditions: in vivo, topical_or_ocular, 0.5 h

T1 sequence (P20701 whole entry): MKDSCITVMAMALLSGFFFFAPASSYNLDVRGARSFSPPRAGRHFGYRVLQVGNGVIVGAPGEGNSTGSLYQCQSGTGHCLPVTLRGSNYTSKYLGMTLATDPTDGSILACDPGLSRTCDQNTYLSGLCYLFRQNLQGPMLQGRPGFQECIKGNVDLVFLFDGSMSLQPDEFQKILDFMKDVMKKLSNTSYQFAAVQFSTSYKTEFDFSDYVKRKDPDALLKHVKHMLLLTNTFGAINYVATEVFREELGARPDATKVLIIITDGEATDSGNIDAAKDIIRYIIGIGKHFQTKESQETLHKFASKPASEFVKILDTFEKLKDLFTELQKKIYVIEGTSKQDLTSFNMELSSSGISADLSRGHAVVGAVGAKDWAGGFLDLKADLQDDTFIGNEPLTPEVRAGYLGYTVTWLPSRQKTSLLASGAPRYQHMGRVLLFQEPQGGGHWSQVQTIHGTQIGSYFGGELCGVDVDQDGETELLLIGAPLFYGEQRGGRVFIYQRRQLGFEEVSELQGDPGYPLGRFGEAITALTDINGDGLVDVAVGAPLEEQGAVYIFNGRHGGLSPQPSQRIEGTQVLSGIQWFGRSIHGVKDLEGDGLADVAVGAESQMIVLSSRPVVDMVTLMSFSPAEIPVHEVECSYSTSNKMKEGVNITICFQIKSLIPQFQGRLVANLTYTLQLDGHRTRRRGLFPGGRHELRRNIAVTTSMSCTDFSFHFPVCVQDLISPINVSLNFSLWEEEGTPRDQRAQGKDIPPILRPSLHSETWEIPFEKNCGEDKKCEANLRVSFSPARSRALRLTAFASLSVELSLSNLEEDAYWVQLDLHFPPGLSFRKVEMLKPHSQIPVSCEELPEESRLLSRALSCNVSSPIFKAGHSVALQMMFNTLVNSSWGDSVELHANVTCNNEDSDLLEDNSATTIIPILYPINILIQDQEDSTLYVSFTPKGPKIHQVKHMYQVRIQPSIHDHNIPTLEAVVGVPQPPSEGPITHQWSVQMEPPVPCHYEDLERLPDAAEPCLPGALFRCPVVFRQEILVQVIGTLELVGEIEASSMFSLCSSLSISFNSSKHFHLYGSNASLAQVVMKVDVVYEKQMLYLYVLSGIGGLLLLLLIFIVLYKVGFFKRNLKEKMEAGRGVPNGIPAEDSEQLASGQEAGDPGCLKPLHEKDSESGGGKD
T1 sequence (P05362 whole entry): as the sequence (P05362 whole entry) above
T1 sequence (P05107 whole entry): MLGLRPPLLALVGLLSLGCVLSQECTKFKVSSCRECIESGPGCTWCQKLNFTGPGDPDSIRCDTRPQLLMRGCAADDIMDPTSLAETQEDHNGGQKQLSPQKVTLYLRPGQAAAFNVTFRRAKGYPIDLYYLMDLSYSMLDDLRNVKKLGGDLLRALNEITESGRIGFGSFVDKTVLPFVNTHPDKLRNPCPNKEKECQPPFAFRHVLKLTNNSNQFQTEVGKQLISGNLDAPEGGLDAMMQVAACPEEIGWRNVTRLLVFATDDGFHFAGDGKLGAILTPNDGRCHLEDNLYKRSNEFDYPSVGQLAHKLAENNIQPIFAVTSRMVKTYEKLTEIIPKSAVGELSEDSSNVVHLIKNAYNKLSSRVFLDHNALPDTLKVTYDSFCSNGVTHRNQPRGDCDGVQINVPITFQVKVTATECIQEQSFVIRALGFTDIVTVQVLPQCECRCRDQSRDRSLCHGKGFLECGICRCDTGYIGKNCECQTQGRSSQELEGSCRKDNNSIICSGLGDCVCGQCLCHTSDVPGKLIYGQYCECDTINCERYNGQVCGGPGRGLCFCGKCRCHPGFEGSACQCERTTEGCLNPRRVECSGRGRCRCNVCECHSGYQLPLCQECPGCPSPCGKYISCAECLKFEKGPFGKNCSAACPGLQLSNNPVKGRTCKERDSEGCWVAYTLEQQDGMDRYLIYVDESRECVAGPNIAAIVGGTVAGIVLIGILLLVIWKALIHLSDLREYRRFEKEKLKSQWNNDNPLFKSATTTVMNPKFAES

IC50 [1] [nM] | IC50 [2] [nM] | remaining at 0.5 h [3] [%] | remaining at 0.5 h [4] [%] | half-life [5] [min] | clearance [6] [mL/min/kg] | AUC (Rattus norvegicus) [ng·h/mL] | SMILES | also measured
13 | 640 |  |  |  |  |  | CNS(=O)(=O)c1cccc(C[C@H](NC(=O)c2c(Cl)cc3c(c2Cl)CCN(C(=O)c2ccc4ccoc4c2)C3)C(=O)O)c1 | 
10 | 260 | > 95 | > 95 | 39 | 80.5 | 1190 | CS(=O)(=O)c1cc(F)cc(C[C@H](NC(=O)c2c(Cl)cc3c(c2Cl)CCN(C(=O)c2ccc4ccoc4c2)C3)C(=O)O)c1 | 
2 | 180 |  |  |  |  |  | CCS(=O)(=O)c1cccc(C[C@H](NC(=O)c2c(Cl)cc3c(c2Cl)CCN(C(=O)c2ccc4ccoc4c2)C3)C(=O)O)c1 | 
10 | > 10000 |  |  |  |  |  | CN(C)S(=O)(=O)c1cccc(C[C@H](NC(=O)c2c(Cl)cc3c(c2Cl)CCN(C(=O)c2ccc4ccoc4c2)C3)C(=O)O)c1 | 
> 1000 |  |  |  |  |  |  | CS(=O)(=O)c1ccccc1C[C@H](NC(=O)c1c(Cl)cc2c(c1Cl)CCN(C(=O)c1ccc(Cl)cc1)C2)C(=O)O | 
200 | > 10000 |  |  |  |  |  | CC(C)S(=O)(=O)c1cccc(C[C@H](NC(=O)c2c(Cl)cc3c(c2Cl)CCN(C(=O)c2ccc4ccoc4c2)C3)C(=O)O)c1 | 
120 |  |  |  |  |  |  | CS(=O)(=O)c1ccc(Cl)c(C[C@H](NC(=O)c2c(Cl)cc3c(c2Cl)CCN(C(=O)c2ccc4ccoc4c2)C3)C(=O)O)c1 | 
9 | 74 | 71 | > 95 | 46.8 | 139 | 705 | CS(=O)(=O)c1cccc(C[C@H](NC(=O)c2c(Cl)cc3c(c2Cl)CCN(C(=O)c2ccc4ccoc4c2)C3)C(=O)O)c1 [listing 1 of 2 here] | Activity (Salmonella typhimurium): Non-toxic; IC50 (Cytochrome P450 3A4): > 20000 nM; IC50 (Cytochrome P450 2C9): 3000 nM; Activity (Canis familiaris): 3.4 mm
120 | 2000 |  |  |  |  |  | CS(=O)(=O)c1cc(C[C@H](NC(=O)c2c(Cl)cc3c(c2Cl)CCN(C(=O)c2ccc4ccoc4c2)C3)C(=O)O)ccc1Cl | 
58 | 490 | > 95 | > 95 | 22.2 | 37 | 2260 | CP(C)(=O)c1cccc(C[C@H](NC(=O)c2c(Cl)cc3c(c2Cl)CCN(C(=O)c2ccc4ccoc4c2)C3)C(=O)O)c1 | 
12 | 5600 |  |  |  |  |  | CC(=O)c1cccc(C[C@H](NC(=O)c2c(Cl)cc3c(c2Cl)CCN(C(=O)c2ccc4ccoc4c2)C3)C(=O)O)c1 | 
57 | 50 | > 95 | > 95 | 16.2 | 121 | 753 | C[S+]([O-])c1cncc(CC(NC(=O)c2c(Cl)cc3c(c2Cl)CCN(C(=O)c2ccc4ccoc4c2)C3)C(=O)O)c1 (racemic) | 
 |  |  |  |  |  |  | CS(=O)(=O)c1cccc(C[C@H](NC(=O)c2c(Cl)cc3c(c2Cl)CCN(C(=O)c2ccc4ccoc4c2)C3)C(=O)O)c1 [listing 2 of 2 here] | inhibition [7]: Active; inhibition [8]: Active; inhibition [9]: Active; inhibition [10]: Active; inhibition [11]: Active; inhibition [12]: Active
250 |  |  |  |  |  |  | CS(=O)(=O)c1ccc(C[C@H](NC(=O)c2c(Cl)cc3c(c2Cl)CCN(C(=O)c2ccc(Cl)cc2)C3)C(=O)O)cc1 | 
800 |  |  |  |  |  |  | CS(=O)(=O)c1cccc(C[C@H](NC(=O)c2c(Cl)cc3c(c2Cl)CCN(C(=O)c2ccc4ccoc4c2)C3)C(=O)O)c1Cl | 
4 | 200 | 71 | > 95 | 61.8 | 34.4 | 2430 | NS(=O)(=O)c1cccc(C[C@H](NC(=O)c2c(Cl)cc3c(c2Cl)CCN(C(=O)c2ccc4ccoc4c2)C3)C(=O)O)c1 | 
10 | 200 |  |  |  |  |  | CS(=O)(=O)c1cc(Cl)cc(C[C@H](NC(=O)c2c(Cl)cc3c(c2Cl)CCN(C(=O)c2ccc4ccoc4c2)C3)C(=O)O)c1 | 
3 | 200 |  |  |  |  |  | CS(=O)(=O)c1cccc(C[C@H](NC(=O)c2c(Cl)cc3c(c2Cl)CCN(C(=O)c2ccc(Cl)cc2)C3)C(=O)O)c1 | 
14 | 940 |  |  |  |  |  | C[C@H](O)c1cccc(C[C@H](NC(=O)c2c(Cl)cc3c(c2Cl)CCN(C(=O)c2ccc4ccoc4c2)C3)C(=O)O)c1 | 
 |  | 65 | > 95 | 25.8 | 60 | 1510 | CS(=O)(=O)c1ccc(C[C@H](NC(=O)c2c(Cl)cc3c(c2Cl)CCN(C(=O)c2ccc4ccoc4c2)C3)C(=O)O)o1 | 
39 | 32 | > 95 | > 95 | 37.2 | 73.5 | 1280 | CS(=O)(=O)c1cncc(C[C@H](NC(=O)c2c(Cl)cc3c(c2Cl)CCN(C(=O)c2ccc4ccoc4c2)C3)C(=O)O)c1 | 
10 | 4000 |  |  |  |  |  | C[C@@H](O)c1cccc(C[C@H](NC(=O)c2c(Cl)cc3c(c2Cl)CCN(C(=O)c2ccc4ccoc4c2)C3)C(=O)O)c1 | 
 |  |  |  |  |  |  | CS(=O)(=O)c1cccc(C[C@H](NC(=O)c2c(Cl)cc3c(c2Cl)CCN(C(=O)c2ccc4ccoc4c2)C3)C(=O)[O-])c1.[Na+] [LIFITEGRAST SODIUM] | solubility [13]: ≥ 200 mg/mL
10 | > 10000 |  |  |  |  |  | CC(C)c1cccc(C[C@H](NC(=O)c2c(Cl)cc3c(c2Cl)CCN(C(=O)c2ccc(Cl)cc2)C3)C(=O)O)c1 | 
 |  |  |  |  |  |  | CS(=O)(=O)c1cccc(C[C@H](N[14C](=O)c2c(Cl)cc3c(c2Cl)CCN(C(=O)c2ccc4ccoc4c2)C3)C(=O)O)c1 | Drug uptake [14]: Active; Drug uptake [15]: Active; Drug uptake [16]: Active; Drug uptake [17]: Active; Drug uptake [18]: Active; Drug uptake [19]: Active
6 | 240 | 92 | > 95 | 16.2 | 74.3 | 1130 | CS(=O)(=O)c1ccc(C[C@H](NC(=O)c2c(Cl)cc3c(c2Cl)CCN(C(=O)c2ccc(Cl)cc2)C3)C(=O)O)o1 | 

Source: ChEMBL document CHEMBL2046303, “Discovery and Development of Potent LFA-1/ICAM-1 Antagonist SAR 1118 as an Ophthalmic Solution for Treating Dry Eye” (ACS Med Chem Lett, 2012)
